Read-outs that look alike come from different tables or passages of the source.
Legend:
Test in all cases: cell-based
[1] = biological target: T1, CAT1 (cationic amino acid transporter 1, CAT1/SLC7A1) (Homo sapiens, UniProt P30825); set-up: species or system HEK-CAT1 (HEK293 stably transfected); Inhibition of net CAT1-mediated [3H]-ADMA (1 uM) uptake, 2.5 min, scintillation counting, vector control subtracted; conditions: HEK293, ADMA 1 uM as substrate; for inhibition at 20 µM: read-out: % Inhibition of ADMA uptake at 20 µM; for inhibition at 200 µM: read-out: % Inhibition of ADMA uptake at 200 µM
T1 construct: full-length human transporter stably transfected in HEK cells (HEK-CAT1); net uptake against HEK-VC vector control cells
T1 sequence (P30825 whole entry): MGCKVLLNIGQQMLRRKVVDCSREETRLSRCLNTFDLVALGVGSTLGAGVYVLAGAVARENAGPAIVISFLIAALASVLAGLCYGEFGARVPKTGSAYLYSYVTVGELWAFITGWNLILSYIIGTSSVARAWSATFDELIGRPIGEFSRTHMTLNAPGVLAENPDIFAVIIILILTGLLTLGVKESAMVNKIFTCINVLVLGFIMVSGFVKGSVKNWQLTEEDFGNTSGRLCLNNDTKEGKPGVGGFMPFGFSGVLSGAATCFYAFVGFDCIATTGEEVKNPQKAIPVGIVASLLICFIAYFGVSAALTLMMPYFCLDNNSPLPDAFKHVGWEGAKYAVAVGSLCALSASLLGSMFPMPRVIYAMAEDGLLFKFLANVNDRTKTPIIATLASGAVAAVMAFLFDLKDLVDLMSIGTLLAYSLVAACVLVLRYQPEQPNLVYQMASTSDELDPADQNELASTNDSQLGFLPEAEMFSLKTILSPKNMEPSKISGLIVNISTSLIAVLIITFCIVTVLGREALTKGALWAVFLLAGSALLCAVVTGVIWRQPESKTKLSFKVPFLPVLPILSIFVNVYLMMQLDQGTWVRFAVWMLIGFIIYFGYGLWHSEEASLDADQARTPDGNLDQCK
Protocol: (§1) Uptake and inhibition assays using HEK-CAT1 and HEK-VC cells and L-arginine, L-homoarginine, and ADMA as substrates were performed using the protocol described (Strobel et al. [2012]; Chafai et al. [2017]). Briefly, after incubation, the supernatant was replaced with transport buffer containing [^3H]- L-arginine for 5 min and 2.5 min for medium containing [^3H]-L-homoarginine or [^3H]-ADMA with or without the test compound. The reference drugs were screened at concentrations of 20 µM (Figs. 1A, 2A, and 3A) and 200 µM (Figs. 1B, 2B, and 3B). […] The net uptake was determined by subtracting the total amount taken up by control cells from the amount taken up by CAT1-expressing cells, which was expressed as a percentage of the amount taken up by the control. To determine the inhibitory effects of the drugs on CAT1-mediated transport of L-arginine, L-homoarginine, or ADMA, the control was measured in the absence of the potential inhibitor. The value for the percent inhibition was calculated as: Inhibition (%) = 100 – (V/V0 ^* 100), where V and V0 are the net uptake rates (uptake into HEK-CAT1 cells—uptake into HEK-VC cells) with and without test drugs, respectively. […] Each bar represents the effect of one compound on CAT1-mediated ADMA (1 μM) uptake as percent inhibition. Data were obtained from at least two independent experiments performed in triplicate (n = 6–9) and each test data from the independent experiment were normalized to the respective control data to get the value of percent inhibition. Negative inhibition values indicate stimulated CAT1-mediated uptake. Data were analyzed using one-way ANOVA and Dunnett’s multiple comparison test with p < 0.05. Bars showing a statistically significant inhibition or transport stimulation are shaded in black

[2] = biological target: T1, CAT1 (cationic amino acid transporter 1, CAT1/SLC7A1); set-up: species or system HEK-CAT1 (HEK293 stably transfected); Inhibition of net CAT1-mediated [3H]-L-arginine (100 uM) uptake, 5 min, scintillation counting, vector control subtracted; conditions: HEK293, L-arginine 100 uM as substrate; for inhibition at 20 µM: read-out: % Inhibition of L-arginine uptake at 20 µM; for inhibition at 200 µM: read-out: % Inhibition of L-arginine uptake at 200 µM
Protocol: as §1, with “L-arginine (100” for “ADMA (1”

[3] = biological target: T1, CAT1 (cationic amino acid transporter 1, CAT1/SLC7A1); set-up: species or system HEK-CAT1 (HEK293 stably transfected); Inhibition of net CAT1-mediated [3H]-L-homoarginine (1 uM) uptake, 2.5 min, scintillation counting, vector control subtracted; conditions: HEK293, L-homoarginine 1 uM as substrate; for inhibition at 20 µM: read-out: % Inhibition of L-homoarginine uptake at 20 µM; for inhibition at 200 µM: read-out: % Inhibition of L-homoarginine uptake at 200 µM
Protocol: as §1, with “CAT1-mediated L-homoarginine” for “CAT1-mediated ADMA”

| inhibition at 20 µM [1] | inhibition at 200 µM [1] | inhibition at 20 µM [2] | inhibition at 200 µM [2] | inhibition at 20 µM [3] | inhibition at 200 µM [3] | Structure (SMILES) |
| --- | --- | --- | --- | --- | --- | --- |
| -11.3 ± 8.3% | -33.5 ± 3.3% | 10.4 ± 4.4% | 31.7 ± 10.4% | -4.3 ± 4.6% | 31.4 ± 10.1% | Clc1ccccc1CN1CCc2sccc2C1 [Ticlopidine] |
| -1.6 ± 3.4% | -35.3 ± 0.8% | 7.4 ± 5.9% | -10.5 ± 3.3% | 8.2 ± 5.4% | -10.1 ± 0.5% | C#C[C@]1(O)CC[C@H]2[C@@H]3CCc4cc(O)ccc4[C@H]3CC[C@@]21C [Ethinylestradiol] |
| 26.1 ± 5.3% | -21.2 ± 2.8% | -15.9 ± 2.5% | -91.4 ± 5% | -15.1 ± 2.1% | -23.1 ± 2.2% | O=C(O)Cc1ccccc1Nc1c(Cl)cccc1Cl [Diclofenac] |
| 3.1 ± 6% | 9.9 ± 3.1% | 9.7 ± 4.1% | 6.2 ± 0.6% | 9.7 ± 4.1% | 9.6 ± 1.4% | C[C@H]1c2cccc(O)c2C(=O)C2=C(O)[C@]3(O)C(=O)C(C(N)=O)=C(O)[C@@H](N(C)C)[C@@H]3[C@@H](O)[C@@H]21 [Doxycycline] |
| 0.1 ± 3.2% | 12.1 ± 5.1% | -19.1 ± 9.3% | -13.4 ± 4.9% | -19.3 ± 9.1% | -13.6 ± 4.6% | C[C@@H](O)[C@H]1C(=O)N2C(C(=O)O)=C(S[C@@H]3CN[C@H](C(=O)N(C)C)C3)[C@H](C)[C@H]12 [Meropenem] |
| 27.2 ± 2.1% | 5.3 ± 1.8% | 9.9 ± 8.3% | -1.5 ± 1.6% | 12.7 ± 4.6% | -9.5 ± 1.2% | CCOC(=O)[C@H](CCc1ccccc1)N[C@@H](C)C(=O)N1CCC[C@H]1C(=O)O [Enalapril] |
| -33.3 ± 2.3% | -16.9 ± 2.24% | 13.9 ± 3.4% | 19.1 ± 0.8% | 12.5 ± 2.7% | 13.2 ± 2.6% | C[C@]12C=CC(=O)C=C1CC[C@@H]1[C@@H]2C(=O)C[C@@]2(C)[C@H]1CC[C@]2(O)C(=O)CO [Prednisone] |
| 11.2 ± 3.4% | 20.7 ± 14.1% | -8.2 ± 5.2% | -42.8 ± 0.3% | -24.9 ± 2.1% | -20.9 ± 1.1% | Cc1ccc(NC(=O)c2ccc(CN3CCN(C)CC3)cc2)cc1Nc1nccc(-c2cccnc2)n1 [Imatinib] |
| -5.5 ± 4.2% | – | -8.1 ± 11.5% | – | -5.6 ± 7.8% | – | CO[C@H]1/C=C/O[C@@]2(C)Oc3c(C)c(O)c4c(O)c(c(/C=N/N5CCN(C)CC5)c(O)c4c3C2=O)NC(=O)/C(C)=C\C=C\[C@H](C)[C@H](O)[C@@H](C)[C@@H](O)[C@@H](C)[C@H](OC(C)=O)[C@@H]1C [Rifampicin] |
| -1.1 ± 3.1% | -7.8 ± 7.1% | -14.1 ± 1.5% | 0.2 ± 3.5% | -11.2 ± 0.9% | -1.4 ± 7.7% | COc1ccccc1OCCNCC(O)COc1cccc2[nH]c3ccccc3c12 (stereo not drawn) [Carvedilol] |
| 0.1 ± 6.9% | -31.1 ± 6.9% | 0.3 ± 12% | -5.8 ± 2.3% | -0.7 ± 11.5% | -6.5 ± 2% | CCOC(=O)[C@H](CCc1ccccc1)N[C@@H](C)C(=O)N1[C@H](C(=O)O)C[C@@H]2CCC[C@@H]21 [Ramipril] |
| -7.3 ± 1.7% | 4 ± 9.5% | -3.9 ± 5.2% | -2.6 ± 3.9% | -9.3 ± 3.3% | -3.9 ± 4.6% | CCOC(=O)C1=C(COCCN)NC(C)=C(C(=O)OC)C1c1ccccc1Cl (stereo not drawn) [Amlodipine] |
| -3.9 ± 5.3% | -72.9 ± 1.6% | -16.8 ± 2.1% | -14.3 ± 6.2% | -2.4 ± 2.1% | -13.6 ± 3.3% | CC[C@H]1OC(=O)[C@H](C)[C@@H](O[C@H]2C[C@@](C)(OC)[C@@H](O)[C@H](C)O2)[C@H](C)[C@@H](O[C@@H]2O[C@H](C)C[C@H](N(C)C)[C@H]2O)[C@](C)(OC)C[C@@H](C)C(=O)[C@H](C)[C@@H](O)[C@]1(C)O [Clarithromycin] |
| -2.8 ± 6.2% | -9.7 ± 5.6% | 9 ± 4% | -10.1 ± 1.7% | 8.9 ± 4.1% | -8.6 ± 1.9% | CCCCNc1cc(C(=O)O)cc(S(N)(=O)=O)c1Oc1ccccc1 [Bumetanide] |
| 20.2 ± 2.8% | -4.1 ± 2.8% | -2.5 ± 2.7% | 6.7 ± 1.4% | -2.5 ± 2.7% | -6.6 ± 3.6% | CC1(C)S[C@@H]2[C@H](NC(=O)[C@H](N)c3ccccc3)C(=O)N2[C@H]1C(=O)O [Ampicillin] |

| Structure (SMILES) | inhibition at 20 µM [1] | inhibition at 200 µM [1] | inhibition at 20 µM [2] | inhibition at 200 µM [2] | inhibition at 20 µM [3] | inhibition at 200 µM [3] |
| --- | --- | --- | --- | --- | --- | --- |
| C[C@H]1O[C@@H](O[C@H]2[C@@H](O)C[C@H](O[C@H]3[C@@H](O)C[C@H](O[C@H]4CC[C@@]5(C)[C@H](CC[C@@H]6[C@@H]5CC[C@]5(C)[C@@H](C7=CC(=O)OC7)CC[C@]65O)C4)O[C@@H]3C)O[C@@H]2C)C[C@H](O)[C@@H]1O [Digitoxin] | 4.3 ± 3.3% | 21.5 ± 2.5% | -7.2 ± 8.2% | -14.1 ± 4.2% | -7.2 ± 2.7% | -12.6 ± 2.5% |
| Cc1cc(=O)n(-c2ccccc2)n1C [Antipyrine] | 1.9 ± 2.5% | -1.2 ± 6.1% | -5.1 ± 7.2% | -12.7 ± 2.5% | -8.2 ± 6% | 12.8 ± 1.4% |
| C#C[C@]1(O)CC[C@H]2[C@@H]3CCC4=CC(=O)CC[C@@H]4[C@H]3CC[C@@]21C [Norethindrone] | -3.8 ± 1.6% | -3.1 ± 0.5% | 26.9 ± 5% | -19.7 ± 3.3% | 23.5 ± 4% | -12.8 ± 9.6% |
